{"source": "patent US8034948B2", "about": "“Method for resolving omeprazole salts” (Universite de Rouen, priority 2007, dated 2011)", "key": {"[1]": {"assay": "Stability of the potassium salt solvates (ambient atmosphere / alcoholic medium with excess potassium hydroxide)", "format": "physicochemical"}, "[2]": {"assay": "Solubility measurements", "format": "physicochemical", "procedure": "The solubility measurements are calculated, for a given temperature and for a given excess of potassium hydroxide, in the following way: [formula]"}, "[3]": {"settings": "in an ethanol-water mixture in which ethanol predominates, with an excess of potassium hydroxide"}, "[4]": {"settings": "excess of potassium hydroxide in alcohol/alcohol or alcohol/water solvent mixtures or pure alcohol"}}, "note": "Counter-ions that a name gives are not always drawn."}
{"smiles": "COc1ccc2nc([S@@+]([O-])Cc3ncc(C)c(OC)c3C)[nH]c2c1", "note": "[(S)-omeprazole, 5-methoxy-2-[(S)-[(4-methoxy-3,5-dimethyl-2-pyridinyl)methyl]sulphinyl]-1H-benzimidazole]", "values": [{"measurement": "Stability", "setting": "[1]; [3]", "value": "stable"}]}
{"smiles": "COc1ccc2[nH]c([S+]([O-])Cc3ncc(C)c(OC)c3C)nc2c1", "note": "(racemic) [ethanol solvates of the potassium salt of racemic omeprazole]", "values": [{"measurement": "Stability", "setting": "[1]; [3]", "value": "stable"}]}
{"smiles": "COc1ccc2[nH]c([S+]([O-])Cc3ncc(C)c(OC)c3C)nc2c1", "note": "(racemic) [racemic mixture]", "values": [{"measurement": "Stability", "setting": "[1]; [4]", "value": "stable"}, {"measurement": "Solubility", "setting": "[2]; absolute ethanol, 1.2 molar equivalents of potassium hydroxide, 26 °C", "value": 1.3, "unit": "% by weight"}, {"measurement": "Solubility", "setting": "[2]; absolute ethanol, 1.2 molar equivalents of potassium hydroxide, 30 °C", "value": 1.7, "unit": "% by weight"}, {"measurement": "Solubility", "setting": "[2]; absolute ethanol, 1.2 molar equivalents of potassium hydroxide, 33 °C", "value": 2.2, "unit": "% by weight"}, {"measurement": "Solubility", "setting": "[2]; ethanol/water (90/10% weight/weight), 1.2 molar equivalents of potassium hydroxide, 30 °C", "value": 25, "unit": "% by weight"}, {"measurement": "Solubility (coordinates of the point L)", "setting": "[2]; ethanol/water (93/7% weight/weight), 1.2 molar equivalents of potassium hydroxide, 34.4 °C", "value": 20, "unit": "% by weight"}, {"measurement": "Solubility", "setting": "[2]; ethanol/water azeotropic mixture, 1.2 molar equivalents of potassium hydroxide, 29 °C", "value": 8.7, "unit": "% by weight"}, {"measurement": "Solubility", "setting": "[2]; ethanol/water azeotropic mixture, 1.2 molar equivalents of potassium hydroxide, 31 °C", "value": 9.1, "unit": "% by weight"}, {"measurement": "Solubility", "setting": "[2]; ethanol/water azeotropic mixture, 1.2 molar equivalents of potassium hydroxide, 35 °C", "value": 13.7, "unit": "% by weight"}, {"measurement": "Solubility of the salt (in words)", "setting": "[2]; in ethanol (Example 7)", "value": "low"}]}
{"smiles": "COc1ccc2nc([S@@+]([O-])Cc3ncc(C)c(OC)c3C)[nH]c2c1", "note": "[pure enantiomer (S)-omeprazole, 5-methoxy-2-[(S)-[(4-methoxy-3,5-dimethyl-2-pyridinyl)methyl]sulphinyl]-1H-benzimidazole]", "values": [{"measurement": "Stability", "setting": "[1]; [4]", "value": "stable"}]}
